Reference: patent US20110178053A1, “AZACARBOLINE DERIVATIVES, PREPARATION METHOD THEREOF AND THERAPEUTIC USE OF SAME” (SANOFI-AVENTIS, priority 2008, published 2011)

Assays:
Pim-1 = target: T1, Pim-1 (Homo sapiens, UniProt P11309); assay: TR-FRET assay, Pim-1 kinase (phosphorylation of Bad Ser112); assay type: biochemical; conditions: TR-FRET; ATP 40 μM; read-out: IC50 Pim1
T1 construct: His6-labelled recombinant full-length human Pim-1, Pim-2 or Pim-3 protein; His6; made in house
Procedure, shortened: (§1)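 Recombinant His6-tagged full-length human Pim-1, Pim-2 or Pim-3 phosphorylates His6-tagged full-length human Bad at 40 μM ATP (apparent KM). Phospho-Ser112 is detected by TR-FRET between Eu-labelled anti-phosphoBad and APC-labelled anti-His6 (665/615 nm ratio); 10-point duplicate series, top typically 30 μM, IC50 from 4-parameter logistic fit.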

Pim-2 = target: T2, Pim-2 (Homo sapiens, UniProt Q9P1W9); assay: TR-FRET assay, Pim-2 kinase (phosphorylation of Bad Ser112); assay type: biochemical; conditions: TR-FRET; ATP 40 μM; read-out: IC50 Pim2
T2 construct: His6-labelled recombinant full-length human Pim-1, Pim-2 or Pim-3 protein; His6; made in house
Procedure, shortened: as §1

Pim-3 = target: T3, Pim-3 (Homo sapiens, UniProt Q86V86); assay: TR-FRET assay, Pim-3 kinase (phosphorylation of Bad Ser112); assay type: biochemical; conditions: TR-FRET; ATP 40 μM; read-out: IC50 Pim3
T3 construct: His6-labelled recombinant full-length human Pim-1, Pim-2 or Pim-3 protein; His6; made in house
Procedure, shortened: as §1

PLK1 = PLK1 (Homo sapiens, UniProt P53350); assay: PLK1 biochemical inhibition
EOL-1 = assay: Cell viability assay (CellTiter-Blue), EOL-1; assay type: cell-based; conditions: Homo sapiens, EOL1, read-out: EC50 EOL-1 μM (lymphoma); EOL-1 cells; cell proliferation/viability
Excerpt: (§2) The representative compounds of the invention are also screened as regards their effects on cell proliferation and viability using a variety of human tumour cell lines, which are representative of various pathological indications. These cell lines include: • Models of haematological cancers: • TF-1 (acute myelogenic leukaemia; AML M6 at the time of diagnosis); • KG-1 (AML; erythroleukaemia evolving into AML); • KG-1a (AML; sub-clone derived from immature KG-1); • EOL-1 (AML; eosinophilic leukaemia); • PL-21 (AML; M3); • ML-2 (AML; T-NHL evolving into T-ALL evolving into AML M4); • HL-60 (AML, M3); • Kasumi-1 (AML); • GDM-1 (AML); • K-562 (CML—chronic myelogenic leukaemia; blastic crisis); • JURL-MK1 (CML; blastic crisis); • DND-41 (T-ALL—-cell acute lymphoblastic leukaemia); • Jurkat (T-ALL); NALM-6 (B-ALL—B-cell ALL); • CEM (ALL; lymphosarcoma evolving into ALL); • Jeko-1 (B-NHL—B-cell non-Hodgkin lymphoma; mantle-cell lymphoma derived from a variant with large cells as a leukaemic transformation); • WSU-DLCL2 (B-NHL; large B-cell diffuse lymphoma); • RL (B-NHL; undifferentiated diffuse); • OCI-Ly10 (B-NHL); • DoHH-2 (B-NHL); • RPMI-8226 (MM—multiple myeloma); • JVM-2 (B-CLL—B-cell chronic lymphocytic leukaemia); and • JVM-3 (B-CLL) • MV4-11 (AML) • MOLM13 (AML). • Solid tumour models: • HCT-116 (bowel cancer); • HT-29 (bowel cancer); • HC-15 (bowel cancer); • H460 (lung cancer; non-small-cell lung cancer); • A375 (melanoma); • B16F10 (melanoma); • MDA-A1 (breast cancer); • MDA-MB231 (breast cancer); • MDA-MB231 adr (breast cancer); • PANC-1 (pancreatic cancer); and • PC-3 (prostate cancer).
(§3) In order to measure the viability, the tumour cells are incubated in a 96-well or 384-well format for 48, 72 or 96 hours, preferably 72 hours, with a compound of the invention at dilutions of a factor 3 with, in general, nine doses in total, the highest dose being equal to 10 μM or 30 μM. The cell viability is evaluated by adding CellTiter-Blue® (Promega, Madison, Wis., United States) for 4 hours and end-point readings are taken using a SpectraMax Genmini EM (Molecular Devices, Sunnyvale, Calif., United States). The CellTiter-Blue® cell viability assay measures the ability of the cells in culture to reduce resazurin to resorufin, the fluorescence signal intensity being directly proportional to the number of live cells.

KG-1a = assay: Cell viability assay (CellTiter-Blue), KG-1a; assay type: cell-based; conditions: Homo sapiens; KG-1a cells; cell proliferation/viability; read-out: EC50 KG-1a μM (leukaemia)
Excerpt: as §2, §3

MV4-11 = assay: Cell viability assay (CellTiter-Blue), MV4-11; assay type: cell-based; conditions: Homo sapiens; MV4-11 cells; cell proliferation/viability; read-out: IC50 MV4-11 μM (myeloma)
Excerpt: as §2, §3

PI3K = PI3K biochemical inhibition
MOLM-13 = assay: Cell viability assay (CellTiter-Blue), MOLM-13; assay type: cell-based; conditions: Homo sapiens; MOLM-13 cells; cell proliferation/viability; read-out: IC50 MOLM-13 μM (myeloma)
Excerpt: as §2, §3

HCT116 = assay: Cell viability assay (CellTiter-Blue), HCT116; assay type: cell-based; conditions: Homo sapiens, HCT-116; HCT116 cells; cell proliferation/viability; read-out: EC50 HCT116 μM (bowel)
Protocol: (§4) The representative compounds of the invention are also screened as regards their effects on cell proliferation and viability using a variety of human tumour cell lines, which are representative of various pathological indications. […]
as §3

B16F10 = assay: Cell viability assay (CellTiter-Blue), B16F10; assay type: cell-based, human; conditions: Mus musculus, B16-F10; B16F10 cells; cell proliferation/viability; read-out: EC50 B16F10 μM (melanoma)
Protocol: as §4, §3

H460 = assay: Cell viability assay (CellTiter-Blue), H460; assay type: cell-based; conditions: Homo sapiens, NCI-H460; H460 cells; cell proliferation/viability; read-out: EC50 H460 μM (lung)
Protocol: as §4, §3

T2 sequence (Q9P1W9 whole entry): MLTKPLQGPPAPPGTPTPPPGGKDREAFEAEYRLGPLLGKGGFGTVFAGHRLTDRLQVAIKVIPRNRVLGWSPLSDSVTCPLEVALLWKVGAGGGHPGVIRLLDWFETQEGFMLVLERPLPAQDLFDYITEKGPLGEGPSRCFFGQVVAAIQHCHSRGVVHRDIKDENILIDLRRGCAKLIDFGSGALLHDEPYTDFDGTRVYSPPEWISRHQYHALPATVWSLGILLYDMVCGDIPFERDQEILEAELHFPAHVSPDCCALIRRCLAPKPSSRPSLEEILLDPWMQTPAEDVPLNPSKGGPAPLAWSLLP
T1 sequence (P11309 whole entry): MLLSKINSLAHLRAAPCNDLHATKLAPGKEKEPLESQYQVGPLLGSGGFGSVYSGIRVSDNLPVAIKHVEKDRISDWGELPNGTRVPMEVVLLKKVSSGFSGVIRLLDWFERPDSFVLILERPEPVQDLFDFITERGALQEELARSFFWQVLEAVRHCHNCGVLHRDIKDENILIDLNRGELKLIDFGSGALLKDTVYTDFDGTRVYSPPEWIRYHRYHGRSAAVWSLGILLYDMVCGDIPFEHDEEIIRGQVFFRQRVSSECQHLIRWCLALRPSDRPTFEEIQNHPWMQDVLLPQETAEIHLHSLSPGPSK
Chain of PLK1 (P53350 whole entry, species assumed): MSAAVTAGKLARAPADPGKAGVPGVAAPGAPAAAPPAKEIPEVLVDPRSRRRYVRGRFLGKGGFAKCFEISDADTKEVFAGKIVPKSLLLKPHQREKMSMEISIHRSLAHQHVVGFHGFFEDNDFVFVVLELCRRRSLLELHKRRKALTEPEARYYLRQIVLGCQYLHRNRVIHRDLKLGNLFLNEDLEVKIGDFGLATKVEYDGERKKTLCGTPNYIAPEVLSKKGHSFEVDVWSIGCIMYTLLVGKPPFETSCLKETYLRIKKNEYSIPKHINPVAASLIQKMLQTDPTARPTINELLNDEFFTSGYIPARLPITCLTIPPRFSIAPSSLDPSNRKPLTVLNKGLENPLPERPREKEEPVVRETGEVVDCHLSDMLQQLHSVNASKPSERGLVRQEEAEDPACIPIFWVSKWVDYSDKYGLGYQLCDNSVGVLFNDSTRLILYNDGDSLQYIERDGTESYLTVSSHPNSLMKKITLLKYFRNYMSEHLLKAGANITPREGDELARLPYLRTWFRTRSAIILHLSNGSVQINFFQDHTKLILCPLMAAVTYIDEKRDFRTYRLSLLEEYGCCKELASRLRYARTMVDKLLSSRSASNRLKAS

| IC50 (Pim-1) [nM] | IC50 (Pim-2) [nM] | IC50 (Pim-3) [nM] | IC50 (PLK1) [nM] | IC50 (MV4-11) [nM] | IC50 (PI3K) [nM] | IC50 (MOLM-13) [nM] | EC50 (HCT116) [nM] | EC50 (B16F10) [nM] | EC50 (H460) [nM] | SMILES | EC50 (EOL-1) [nM] | EC50 (KG-1a) [µM] |
| --- | --- | --- | --- | --- | --- | --- | --- | --- | --- | --- | --- | --- |
| 1 to 100 | 1000 to 5000 | 100 to 1000 | 100 to 1000 | 1000 to 5000 | – | – | – | – | – | c1cncc(-c2cc3c(cn2)[nH]c2ncccc23)c1 [Example 1, 6-pyrid-3-yl-9H-pyrrolo[2,3-b:5,4-c′]dipyridine] | 1000 to 5000 | 1 to 5 |
| 1 to 100 | > 5000 | 100 to 1000 | > 5000 | 100 to 1000 | – | – | – | – | – | CC(C)(C)OC(=O)c1cnc2[nH]c3cnc(-c4cccnc4)cc3c2c1 [Example 5, 2-methylpropan-2-yl 6-(pyrid-3-yl)-9H-pyrrolo[2,3-b:5,4-c′]dipyridine-3-carboxylate] | 100 to 1000 | 0.1 to 1 |
| 1 to 100 | 1000 to 5000 | 1 to 100 | 100 to 1000 | 100 to 1000 | – | – | – | – | – | CCCN(C)c1cnc2[nH]c3cnc(-c4cccnc4)cc3c2c1 [Example 10, N-methyl-N-propyl-6-(pyrid-3-yl)-9H-pyrrolo[2,3-b:5,4-c′]dipyrid-3-amine] | 100 to 1000 | 0.1 to 1 |
| 1 to 100 | 1000 to 5000 | 1 to 100 | > 5000 | 100 to 1000 | – | – | – | – | – | c1cncc(-c2cc3c(cn2)[nH]c2ncc(N4CCOCC4)cc23)c1 [Example 14, 3-(morpholin-4-yl)-6-(pyrid-3-yl)-9H-pyrrolo[2,3-b:5,4-c′]dipyridine] | 100 to 1000 | 1 to 5 |
| 1 to 100 | 100 to 1000 | 1 to 100 | > 5000 | 100 to 1000 | – | – | – | – | – | CC(C)(CO)COC(=O)c1cnc2[nH]c3cnc(-c4cccnc4)cc3c2c1 [Example 15, 3-hydroxy-2,2-dimethylpropyl 6-(pyrid-3-yl)-9H-pyrrolo[2,3-b:5,4-c′]-dipyridine-3-carboxylate] | 100 to 1000 | 0.1 to 1 |
| 1 to 100 | 100 to 1000 | 1 to 100 | 1 to 100 | 1 to 100 | 100 to 1000 | 1 to 100 | 1 to 100 | 1 to 100 | 1 to 100 | CS(=O)(=O)Nc1ccc(-c2c(F)cnc3[nH]c4cnc(-c5cccnc5)cc4c23)cc1 [Example 22, N-[4-(3-Fluoro-6-(pyrid-3-yl)-9H-pyrrolo[2,3-b:5,4-c′]dipyrid-4-yl)-phenyl]methanesulfon-amide] | 1 to 100 | – |
| 1 to 100 | 1000 to 5000 | 100 to 1000 | 1000 to 5000 | 1000 to 5000 | – | 1000 to 5000 | – | – | – | Cn1cc(-c2cc3c(cn2)[nH]c2ncccc23)cn1 [Example 39, 6-(1-Methyl-1H-pyrazol-4-yl)-9H-pyrrolo[2,3-b:5,4-c′]dipyridine] | 100 to 1000 | 0.1 to 1 |
| 1 to 100 | 1 to 100 | 1 to 100 | 1 to 100 | 1 to 100 | 1 to 100 | 1 to 100 | – | – | – | COc1cnc2[nH]c3cnc(-c4cccnc4)cc3c2c1-c1ccc(NS(C)(=O)=O)cc1 [Example 44, N-[4-(3-methoxy-6-(pyrid-3-yl)-9H-pyrrolo[2,3-b:5,4-c′]dipyrid-4-yl)phenyl]methane-sulfonamide] | 1 to 100 | – |
